Assay results as given in US7919465B2, “Peptide mimotopes that inhibits interaction between a platelet receptor and a platelet receptor ligand” (priority 2006, dated 2011).
Read-outs that look alike come from different tables or passages of the source. Non-standard residues stand in square brackets, D forms with d. No end group written: not given here.

What was measured:
[1] = target: T1, fibrinogen (Homo sapiens, UniProt P02671+P02675+P02679); assay: Binding of D-amino acid-containing sequences to fibrinogen
T1 sequence (P02671 20-629 limits assumed): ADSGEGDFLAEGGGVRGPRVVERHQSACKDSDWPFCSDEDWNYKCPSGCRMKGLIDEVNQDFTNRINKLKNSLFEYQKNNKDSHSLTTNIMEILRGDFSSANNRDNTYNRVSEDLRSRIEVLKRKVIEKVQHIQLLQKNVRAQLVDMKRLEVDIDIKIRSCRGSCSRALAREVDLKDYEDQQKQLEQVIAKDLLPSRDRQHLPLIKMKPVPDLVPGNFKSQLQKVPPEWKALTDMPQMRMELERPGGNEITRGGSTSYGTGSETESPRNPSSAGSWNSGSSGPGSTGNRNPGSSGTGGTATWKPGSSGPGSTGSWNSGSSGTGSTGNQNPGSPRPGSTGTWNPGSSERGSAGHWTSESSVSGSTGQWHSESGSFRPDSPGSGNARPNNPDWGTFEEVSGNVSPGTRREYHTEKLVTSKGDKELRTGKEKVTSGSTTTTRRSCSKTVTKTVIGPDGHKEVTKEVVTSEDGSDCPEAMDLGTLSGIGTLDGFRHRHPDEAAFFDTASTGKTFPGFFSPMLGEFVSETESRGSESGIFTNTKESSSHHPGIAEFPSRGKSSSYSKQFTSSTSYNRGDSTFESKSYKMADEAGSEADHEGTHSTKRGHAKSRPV
T1 sequence (P02675 31-491): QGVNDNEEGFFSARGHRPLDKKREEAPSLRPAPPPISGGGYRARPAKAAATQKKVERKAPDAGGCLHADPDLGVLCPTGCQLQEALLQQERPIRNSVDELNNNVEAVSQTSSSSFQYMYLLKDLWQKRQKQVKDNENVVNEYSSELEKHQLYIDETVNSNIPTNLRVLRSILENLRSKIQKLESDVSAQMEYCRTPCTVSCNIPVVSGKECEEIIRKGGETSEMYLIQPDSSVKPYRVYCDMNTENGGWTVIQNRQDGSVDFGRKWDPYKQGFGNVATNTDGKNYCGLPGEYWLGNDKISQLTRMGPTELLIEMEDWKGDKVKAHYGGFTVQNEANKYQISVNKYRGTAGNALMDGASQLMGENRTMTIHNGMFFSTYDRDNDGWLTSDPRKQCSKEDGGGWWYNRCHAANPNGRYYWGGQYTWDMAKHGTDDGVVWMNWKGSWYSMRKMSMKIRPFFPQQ
T1 sequence (P02679 27-433 limits assumed): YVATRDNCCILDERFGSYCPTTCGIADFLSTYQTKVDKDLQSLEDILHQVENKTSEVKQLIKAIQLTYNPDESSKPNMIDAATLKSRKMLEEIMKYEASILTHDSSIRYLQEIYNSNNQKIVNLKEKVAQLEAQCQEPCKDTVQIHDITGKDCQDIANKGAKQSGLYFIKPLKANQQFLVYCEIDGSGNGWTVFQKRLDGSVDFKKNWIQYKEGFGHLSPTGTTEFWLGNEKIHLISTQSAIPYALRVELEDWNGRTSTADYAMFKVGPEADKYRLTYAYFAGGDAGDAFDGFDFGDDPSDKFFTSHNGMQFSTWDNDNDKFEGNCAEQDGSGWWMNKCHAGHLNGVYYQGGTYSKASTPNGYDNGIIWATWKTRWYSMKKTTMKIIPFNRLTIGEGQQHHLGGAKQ
Source text: These peptides can be used to pull/capture fibrinogen from a solution as well as to inhibit the interaction between fibrinogen and its cognate receptor(s).

[2] = target: T2, GPIb-vWf interaction (Homo sapiens, UniProt P07359); assay: Flow cytometry inhibition of vWf binding to ristocetin-activated platelets in PRP; assay type: cell-based
T2 construct: Platelet rich plasma (PRP) was prepared from whole blood by centrifugation; endogenous in cells
Experimental: (§1) In order to prepare human platelets for testing, as approved by Canadian Blood Services' Ethics Board, samples of whole blood were drawn from healthy, consenting donors into 2.7-4.0 mL citrated tubes (BD, USA). Platelet rich plasma (PRP) was prepared from whole blood by centrifugation in a Beckman (CS-6R) bench-top centrifuge (r=203.57 mm, Beckman Coulter, USA) 164×g for 15 minutes. PRP from a number of unrelated donors were evaluated on an Adiva 120 Hematology Analyzer (Bayer, Canada) and standardized to a concentration of 300×10^9 platelets/L in HEPES buffered saline (HBS, 10 mM HEPES, 150 mM NaCl, pH 7.4).
Thereafter the samples were diluted and fixed with 1.0 mL 0.2% formolsaline (0.2% formaldehyde, 150 mM NaCl, pH 7.20) before analysis on a FACS Canto flow cytometer (BD, USA).
The effect of native HPG, free peptides, and peptide-conjugated HPG on activated platelets using modifications of the above assay systems was also examined. Platelets were treated with either 5 μL 4.2 mg/mL ristocetin (Chrono-Log, USA) or 100 U thrombin (T6884, Sigma-Aldrich, Canada) with 5 μL GPRP fibrin inhibitor (G5779, Sigma-Aldrich, Canada) dissolved in HBS. […] Controls included incubation with mouse IgG-FITC/IgG-PE (Beckman-Coulter, Canada) of the same isotype, and/or omitting the conjugate.

[3] = system: vWf binding to resting platelets; assay: Flow cytometry of vWf binding to resting platelets; assay type: cell-based, human
Experimental: as §1
(§2) 40 μL aliquots of HBS were mixed with 5 μL PRP and 5 μL of the material to be tested: 500 kDa native HPG; free peptides; or peptide-conjugated HPG at 1.0×10^−3 M to 1.0×10^−9 M. After 40 minutes of incubation at ambient temperature, 5 μL 0.01 mg/mL FITC-conjugated polyclonal sheep anti-human vWf IgG (Abcam, USA) or 5 μL of 2 mg/mL PE-conjugated monoclonal mouse anti-human CD62 IgG (Beckman-Coulter, Canada) was added and incubation was continued in the dark for 30 min. Thereafter the samples were diluted and fixed with 1.0 mL 0.2% formolsaline (0.2% formaldehyde, 150 mM NaCl, pH 7.20) before analysis on a FACS Canto flow cytometer (BD, USA).
(§3) The effect of native HPG, free peptides, and peptide-conjugated HPG on activated platelets using modifications of the above assay systems was also examined. Platelets were treated with either 5 μL 4.2 mg/mL ristocetin (Chrono-Log, USA) or 100 U thrombin (T6884, Sigma-Aldrich, Canada) with 5 μL GPRP fibrin inhibitor (G5779, Sigma-Aldrich, Canada) dissolved in HBS. This was done to determine whether the peptides and the peptide-conjugates can mitigate vWf and thrombin mediated platelet effects. Controls included incubation with mouse IgG-FITC/IgG-PE (Beckman-Coulter, Canada) of the same isotype, and/or omitting the conjugate. As a result, native HPG, free peptides, and peptide-conjugated HPG neither did they increase vWf binding to resting platelets (Table 5) or they could trigger platelet activation.

[4] = system: CD62/P-selectin on platelet surfaces; assay: Flow cytometry of surface CD62 expression on platelets; assay type: cell-based, human; details: for Surface CD62 Expression, Activated Platelets: thrombin-activated platelets
Experimental: as §1, §2
as §3, with “activation. […]” for “activation.”

[5] = system: platelets; assay: Aggregometry, % aggregation on activation; assay type: cell-based, human; design: concentration or dose not given beside the values; details: ristocetin activation
Experimental: as §1, §3
The inhibition of platelet agglutination by vWf was observed both by light microscopy and lumiaggregometry (Table 5). No clumping was seen when resting platelets were incubated with free peptides, native HPG, or peptide-conjugated HPG.

[6] = system: GPIIbIIIa; assay: Ristocetin-mediated GPIIbIIIa activation probed by PAC-1 antibody, flow cytometry; assay type: cell-based, human; details: at IC50 concentration, 60 minutes, PAC-1, p<0.05
Experimental: To show inhibition of the GPIb-vWf interaction in PRP, activation had to target the plasma component, specifically vWf, by ristocetin, rather than the consequences of platelet activators such as thrombin or ADP. Ristocetin mediated GPIb signaling was detected through GPIIbIIIa activation and flow cytometry. 5 μL resting PRP were incubated with […] (SEQ ID NO:8) or L100 at their respective IC50 concentrations for 60 minutes and 5 μL 4.2 mg/mL ristocetin was used to induce platelet activation. Consequent GPIIbIIIa activation was probed via a monoclonal FITC-conjugated PAC-1 antibody to the active conformation of GPIIbIIIa (BD, Canada).

Row | Substance | ability to bind to fibrinogen [1] | vWf Binding, Resting Platelets [3] | Surface CD62 Expression, Resting Platelets [4] | Surface CD62 Expression, Activated Platelets [4] | GPIIbIIIa activation upon ristocetin stimulation [6] | other results
1 | KYQCYAPAHPSYVNY (also: D-amino acids, places not given here) | bind to fibrinogen | – | – | – | – | –
2 | CGGGGGGSHAYIGLKDR [L-pep] | – | 24 ± 4′ | 18 ± 1 | 72 ± 8″ | significantly attenuated | IC50 [2]: 48 µM; Aggregometry % Aggregation on Activation [5]: 5 ± 5%
3 | FKWSWEWQGQEAYYD ([dF][dK][dW][dS][dW][dE][dW][dQ]G[dQ][dE][dA][dY][dY][dD]) | bind to fibrinogen | – | – | – | – | –
4 | SMTSMCYLIGAPKYK (also: D-amino acids, places not given here) | bind to fibrinogen | – | – | – | – | –
5 | L100: HPG 500 kDa conjugate with about 100 L-peptides per HPG molecule (CGGGGGGSHAYIGLKDR; also: conjugated to HPG 500 kDa, about 100 L-peptides per HPG molecule, site not given here) | – | 23 ± 2′ | 20 ± 3 | 71 ± 5″ | significantly attenuated | inhibition of vWf binding to platelets (in words) [2]: effective inhibitors; IC50 ([2]; expressed as peptide concentration, read-out: Peptide Concentration at Ic50): 210 µM; IC50 ([2]; inhibition of platelet-vWf binding, molar concentration of peptide or conjugate, read-out: Ic50): 1.1 µM
6 | FRIYYVYTTSQQDSC ([dF][dR][dI][dY][dY][dV][dY][dT][dT][dS][dQ][dQ][dD][dS][dC]) | bind to fibrinogen | – | – | – | – | –
